Measured values taken from ChEMBL document CHEMBL1201862, “PubChem BioAssay data set” (2004).
Activity calls are given as the source filed them. Peptide text beside a SMILES is read from it. * marks the point of attachment. Cbz = O=C(OCc1ccccc1)*

What was measured:
Melanocortin receptor 4 = Melanocortin receptor 4 (Homo sapiens, UniProt P32245); assay: MC4R antagonist potency on cAMP, dose response, cell-based, TR-FRET, biased antagonists (AID 602298); format: functional;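 note: antagonist potency against agonist-stimulated cAMP production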
Chain of Melanocortin receptor 4 (P32245 whole entry): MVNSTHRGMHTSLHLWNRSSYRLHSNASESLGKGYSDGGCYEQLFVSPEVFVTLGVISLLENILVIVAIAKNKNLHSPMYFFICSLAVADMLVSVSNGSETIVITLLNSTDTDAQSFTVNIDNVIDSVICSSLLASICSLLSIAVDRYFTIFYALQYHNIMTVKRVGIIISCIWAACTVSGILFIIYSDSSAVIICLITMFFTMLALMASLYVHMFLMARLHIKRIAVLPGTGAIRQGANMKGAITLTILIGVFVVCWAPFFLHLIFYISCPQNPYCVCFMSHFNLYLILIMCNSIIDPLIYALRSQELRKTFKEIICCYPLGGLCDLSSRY

[1] = nonselective inhibitors of cellular cAMP signaling, dose response, counter-screen for MC4R biased antagonist project, cell-based, TR-FRET cAMP detection (AID 602305); format: functional;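 note: U2OS cells stimulated with forskolin near its EC80 as the cAMP inducer; potency is for inhibition of forskolin-stimulated cAMP signaling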
[2] = Luminescence Cell-Based Dose Confirmation HTS to Identify Activators of 5'UTR Stem-Loop Driven Alpha-Synuclein mRNA Translation in H4 Neuroglioblastoma Cells. [Related pubchem assays: 1829 (Project Summary), 1814 (Primary HTS)]; format: functional
[3] = Luminescence Cell-Based Dose Response HTS to Identify Activators of Luciferase Translation or Activity in H4 […] Cells. [Related pubchem assays: 1829 (Project Summary), 1814 (Primary HTS)]; format: functional
H4 = assay: Luminescence Cell-Based Dose Response HTS to Identify Activators of 5'UTR Stem-Loop Driven Prion Protein mRNA Translation in H4 Neuroglioblastoma Cells. [Related pubchem assays: 1829 (Project Summary), 1814 (Primary HTS)]; format: functional; settings: Homo sapiens
[4] = biological target: 26S proteasome non-ATPase regulatory subunit 14 (Homo sapiens, UniProt O00487); assay: inhibition of proteasome subunit RPN11 – biochemical, fluorescence polarization, uHTS hits, confirmation (AID 602368); format: functional
Chain of 26S proteasome non-ATPase regulatory subunit 14 (O00487 whole entry): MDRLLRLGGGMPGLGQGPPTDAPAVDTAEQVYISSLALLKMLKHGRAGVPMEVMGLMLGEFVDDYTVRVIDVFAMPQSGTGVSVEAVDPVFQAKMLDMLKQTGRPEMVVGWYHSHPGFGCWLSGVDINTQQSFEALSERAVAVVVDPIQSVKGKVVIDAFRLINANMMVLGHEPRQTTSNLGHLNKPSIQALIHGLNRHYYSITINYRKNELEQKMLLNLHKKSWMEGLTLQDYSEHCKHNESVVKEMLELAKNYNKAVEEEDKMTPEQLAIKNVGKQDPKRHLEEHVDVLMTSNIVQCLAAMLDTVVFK

[5] = biological target: 72 kDa type IV collagenase (Homo sapiens, UniProt P08253); assay: Dose Response validation of uHTS RPN11 inhibitor hits using a MMP-2 Fluorescence assay.; format: functional
Chain of 72 kDa type IV collagenase (P08253 whole entry): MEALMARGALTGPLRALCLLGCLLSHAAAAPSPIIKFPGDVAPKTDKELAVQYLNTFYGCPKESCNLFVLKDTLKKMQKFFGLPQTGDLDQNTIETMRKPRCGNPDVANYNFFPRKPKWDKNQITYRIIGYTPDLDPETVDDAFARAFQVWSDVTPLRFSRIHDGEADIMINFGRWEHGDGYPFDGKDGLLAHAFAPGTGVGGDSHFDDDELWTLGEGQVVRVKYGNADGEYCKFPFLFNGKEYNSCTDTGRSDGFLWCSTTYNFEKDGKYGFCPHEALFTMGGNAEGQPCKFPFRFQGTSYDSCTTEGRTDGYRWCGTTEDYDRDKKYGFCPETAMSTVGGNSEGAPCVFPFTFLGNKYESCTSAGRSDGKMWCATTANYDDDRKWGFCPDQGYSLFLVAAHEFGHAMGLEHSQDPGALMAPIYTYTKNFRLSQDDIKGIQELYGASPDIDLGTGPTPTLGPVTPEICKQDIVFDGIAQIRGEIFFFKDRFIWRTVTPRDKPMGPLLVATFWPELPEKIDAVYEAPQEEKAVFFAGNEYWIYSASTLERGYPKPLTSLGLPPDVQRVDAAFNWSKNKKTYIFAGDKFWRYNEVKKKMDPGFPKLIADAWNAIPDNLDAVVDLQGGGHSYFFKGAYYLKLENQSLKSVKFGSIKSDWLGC

Prothrombin = Prothrombin (Bos taurus, UniProt P00735); assay: thrombin inhibition, dose response, biochemical, fluorescence polarization, uHTS hits (AID 602369); format: functional
[6] = biological target: T1, Rac GTPase-activating protein 1 (Homo sapiens, UniProt Q9H0H5); assay: MgcRacGAP GTPase-activating activity inhibitors, confirmation, biochemical, ADP Hunter fluorescence, primary and confirmatory (AID 624330); format: functional
T1 sequence (Q9H0H5 whole entry): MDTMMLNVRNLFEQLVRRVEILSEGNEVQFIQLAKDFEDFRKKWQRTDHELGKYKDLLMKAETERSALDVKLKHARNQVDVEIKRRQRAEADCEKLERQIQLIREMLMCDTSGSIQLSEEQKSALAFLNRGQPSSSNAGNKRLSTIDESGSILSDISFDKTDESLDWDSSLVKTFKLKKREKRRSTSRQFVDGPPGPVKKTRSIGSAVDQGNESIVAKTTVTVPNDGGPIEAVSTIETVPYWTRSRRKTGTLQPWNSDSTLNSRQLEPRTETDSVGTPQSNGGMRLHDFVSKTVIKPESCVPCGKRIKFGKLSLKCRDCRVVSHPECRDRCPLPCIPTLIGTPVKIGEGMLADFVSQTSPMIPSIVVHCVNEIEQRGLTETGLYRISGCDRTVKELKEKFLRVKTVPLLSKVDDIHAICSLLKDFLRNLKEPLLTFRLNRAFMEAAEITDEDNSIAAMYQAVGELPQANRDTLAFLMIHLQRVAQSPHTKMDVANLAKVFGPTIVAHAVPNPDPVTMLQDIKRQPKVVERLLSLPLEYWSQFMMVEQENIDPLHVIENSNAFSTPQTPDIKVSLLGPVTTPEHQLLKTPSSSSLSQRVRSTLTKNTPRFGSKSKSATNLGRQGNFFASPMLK

BJ [7] = assay: cytotoxicity toward BJ-TERT fibroblasts, dose response, cell-based, RAS-independent, luminescence (AID 1933); format: functional; settings: Homo sapiens
BJ [8] = assay: cells; format: functional, cell-based; settings: Homo sapiens
[9] = biological target: Luciferin 4-monooxygenase (Photinus pyralis, UniProt P08659); assay: firefly luciferase enzyme inhibitors, dose response, biochemical, luminescence (AID 1891)
Chain of Luciferin 4-monooxygenase (P08659 whole entry): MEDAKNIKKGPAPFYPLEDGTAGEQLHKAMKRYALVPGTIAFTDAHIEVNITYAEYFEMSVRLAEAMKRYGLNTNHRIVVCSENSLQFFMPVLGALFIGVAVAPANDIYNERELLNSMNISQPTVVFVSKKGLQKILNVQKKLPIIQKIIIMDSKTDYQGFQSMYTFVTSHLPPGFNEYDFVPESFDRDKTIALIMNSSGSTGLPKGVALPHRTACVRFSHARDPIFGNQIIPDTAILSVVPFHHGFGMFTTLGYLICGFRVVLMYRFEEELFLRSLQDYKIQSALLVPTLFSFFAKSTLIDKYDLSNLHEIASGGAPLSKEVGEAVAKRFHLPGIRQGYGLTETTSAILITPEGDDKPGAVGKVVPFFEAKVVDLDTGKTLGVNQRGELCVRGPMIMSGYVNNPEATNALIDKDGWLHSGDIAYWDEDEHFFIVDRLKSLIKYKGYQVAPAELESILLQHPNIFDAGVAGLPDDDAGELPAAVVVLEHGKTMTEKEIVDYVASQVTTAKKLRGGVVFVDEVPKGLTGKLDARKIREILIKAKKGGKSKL

[10] = Luminescence Cell-Based Dose Confirmation HTS to Identify Inhibitors of Platelet Dense Granule Release. [Related pubchem assays: 1663 (Primary HTS), 1678 (Summary of Project)]; format: functional
BJ [11] = assay: cytotoxicity toward BJ-TERT-LT-ST fibroblasts, dose response, cell-based, RAS-independent, luminescence (AID 1935); format: functional; settings: Homo sapiens;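 note: BJ fibroblasts immortalized with TERT plus LT and ST oncogenes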
[12] = cytotoxicity toward DRD oncogenic fibroblasts, dose response, cell-based, non-viral oncogenic, luminescence (AID 1934); format: functional; settings: Homo sapiens
[13] = inhibition of ADP-Glo detection reagents, dose response, artefact control for CDK5 inhibitor project, biochemical, luminescence, cherry-picked samples, set 2 (AID 504546); format: functional
[14] = biological target: Cyclin-dependent kinase 5/CDK5 activator 1 (Homo sapiens, UniProt Q00535); assay: CDK5/p35 kinase inhibitors, dose response, biochemical, cherry-picked samples, set 2 (AID 504545)
BJ [15] = assay: cytotoxicity toward Ras-transformed BJeLR fibroblasts, dose response, cell-based, alamar blue fluorescence, cherrypicked samples (AID 2631); format: functional; settings: Homo sapiens;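 note: confirmatory dose-response assay in RAS-dependent BJ fibroblasts engineered with TERT, LT and ST, with cytotoxicity read by fluorescence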
[16] = biological target: Dual specificity tyrosine-phosphorylation-regulated kinase 1A (Rattus norvegicus, UniProt Q63470); format: biochemical, Homo sapiens
[17] = AlphaScreen signal interference compounds, dose response, artefact control for ARNT-TACC3 interaction inhibitor project, biochemical, luminescence, cherry-pick (AID 651705); format: functional;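 note: AlphaScreen bead proximity signal that flags compounds interfering with the detection technology; potency reflects signal decrease which marks the compound as an assay artifact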
[18] = NIH-3T3 fibroblast cytotoxicity, dose response, cytotoxicity control, cell-based, fluorescence, Alamar Blue, secondary assay (AID 2327); format: functional;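 note: NIH-3T3 mouse fibroblasts cultured with fluconazole at 8 µg/mL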
[19] = C. albicans growth with fluconazole, confirmation, fluorescence, retest (AID 2467); format: functional, cell-based
[20] = biological target: T2, Serine/threonine-protein phosphatase (Candida dubliniensis (strain CD36 / CBS 7987 / NCPF 3949 / NRRLY-17841) (Yeast), UniProt B9W6M3); assay: calcineurin pathway inhibitors in yeast reporter, dose response, S. cerevisiae, CDRE-lacZ, luminescence, secondary (AID 2388); format: functional, cell-based;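 note: yeast reporter cells carrying a calcineurin-responsive lacZ construct stimulated with calcium chloride; luminescent beta-galactosidase reporter signal in whole cells rather than isolated phosphatase activity; potency for inhibition where a drop in reporter signal means calcineurin blockade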
T2 sequence (B9W6M3 whole entry): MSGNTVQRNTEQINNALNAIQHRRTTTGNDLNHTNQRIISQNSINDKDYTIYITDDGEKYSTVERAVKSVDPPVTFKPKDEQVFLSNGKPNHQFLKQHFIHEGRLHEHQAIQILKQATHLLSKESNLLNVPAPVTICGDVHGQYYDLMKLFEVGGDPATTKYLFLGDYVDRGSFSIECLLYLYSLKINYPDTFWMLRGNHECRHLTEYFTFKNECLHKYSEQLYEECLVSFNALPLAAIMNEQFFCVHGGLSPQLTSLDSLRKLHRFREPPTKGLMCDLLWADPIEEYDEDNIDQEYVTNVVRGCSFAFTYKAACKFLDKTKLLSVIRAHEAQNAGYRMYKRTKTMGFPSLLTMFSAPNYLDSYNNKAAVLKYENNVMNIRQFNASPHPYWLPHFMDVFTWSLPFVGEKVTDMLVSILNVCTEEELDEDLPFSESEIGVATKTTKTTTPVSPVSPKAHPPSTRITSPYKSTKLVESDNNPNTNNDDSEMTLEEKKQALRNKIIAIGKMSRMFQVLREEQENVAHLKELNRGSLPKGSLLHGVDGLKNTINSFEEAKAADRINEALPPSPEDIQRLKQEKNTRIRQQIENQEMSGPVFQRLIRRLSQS

[21] = biological target: Benomyl/methotrexate resistance protein (Candida albicans, UniProt P28873); assay: CaMdr1 efflux pump inhibitor potency, dose response, singleplex, Cherry Pick1 hits (AID 588608); format: functional
[22] = biological target: ATP-dependent molecular chaperone HSP82 (Candida albicans (strain WO-1) (Yeast), UniProt C4YTQ8); assay: loss of DOC-induced GRE-beta-galactosidase reporter signal, dose response, Hsp90 inhibitor project, S. cerevisiae, luminescence (AID 2400); format: functional, cell-based;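 note: beta-galactosidase luminescence from glucocorticoid response element reporter as proxy for Hsp90 function; inhibitor potency where signal loss means Hsp90 inhibition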
Interleukin-8 [23] = biological target: T3, Interleukin-8 (Homo sapiens, UniProt P10145); assay: Dose Response confirmation of uHTS small molecule hits for cystic fibrosis induced NFkb Inhibitors in a TNFa-induced IL8 counterscreen.; format: functional; settings: read-out: IC50_Mean
T3 sequence (P10145 whole entry): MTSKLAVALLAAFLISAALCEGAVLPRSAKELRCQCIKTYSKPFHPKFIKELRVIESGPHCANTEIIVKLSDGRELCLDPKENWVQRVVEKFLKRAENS

Interleukin-8 [24] = biological target: T3, Interleukin-8; assay: Dose Response confirmation of uHTS small molecule hits for cystic fibrosis induced NFkb Inhibitors in a PAF-induced IL8 counterscreen.; format: functional; settings: read-out: IC50_Mean
Fatty acid synthase [25] = biological target: T4, Fatty acid synthase (Homo sapiens, UniProt P49327); assay: FAS thioesterase domain inhibitors, dose response, biochemical, endpoint fluorescence intensity, uHTS hits (AID 624327); format: functional;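 note: fluorescence from hydrolysis of an O-methyl fluorescein acyl ester substrate by the enzyme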
T4 sequence (P49327 whole entry, the tested form may be a part): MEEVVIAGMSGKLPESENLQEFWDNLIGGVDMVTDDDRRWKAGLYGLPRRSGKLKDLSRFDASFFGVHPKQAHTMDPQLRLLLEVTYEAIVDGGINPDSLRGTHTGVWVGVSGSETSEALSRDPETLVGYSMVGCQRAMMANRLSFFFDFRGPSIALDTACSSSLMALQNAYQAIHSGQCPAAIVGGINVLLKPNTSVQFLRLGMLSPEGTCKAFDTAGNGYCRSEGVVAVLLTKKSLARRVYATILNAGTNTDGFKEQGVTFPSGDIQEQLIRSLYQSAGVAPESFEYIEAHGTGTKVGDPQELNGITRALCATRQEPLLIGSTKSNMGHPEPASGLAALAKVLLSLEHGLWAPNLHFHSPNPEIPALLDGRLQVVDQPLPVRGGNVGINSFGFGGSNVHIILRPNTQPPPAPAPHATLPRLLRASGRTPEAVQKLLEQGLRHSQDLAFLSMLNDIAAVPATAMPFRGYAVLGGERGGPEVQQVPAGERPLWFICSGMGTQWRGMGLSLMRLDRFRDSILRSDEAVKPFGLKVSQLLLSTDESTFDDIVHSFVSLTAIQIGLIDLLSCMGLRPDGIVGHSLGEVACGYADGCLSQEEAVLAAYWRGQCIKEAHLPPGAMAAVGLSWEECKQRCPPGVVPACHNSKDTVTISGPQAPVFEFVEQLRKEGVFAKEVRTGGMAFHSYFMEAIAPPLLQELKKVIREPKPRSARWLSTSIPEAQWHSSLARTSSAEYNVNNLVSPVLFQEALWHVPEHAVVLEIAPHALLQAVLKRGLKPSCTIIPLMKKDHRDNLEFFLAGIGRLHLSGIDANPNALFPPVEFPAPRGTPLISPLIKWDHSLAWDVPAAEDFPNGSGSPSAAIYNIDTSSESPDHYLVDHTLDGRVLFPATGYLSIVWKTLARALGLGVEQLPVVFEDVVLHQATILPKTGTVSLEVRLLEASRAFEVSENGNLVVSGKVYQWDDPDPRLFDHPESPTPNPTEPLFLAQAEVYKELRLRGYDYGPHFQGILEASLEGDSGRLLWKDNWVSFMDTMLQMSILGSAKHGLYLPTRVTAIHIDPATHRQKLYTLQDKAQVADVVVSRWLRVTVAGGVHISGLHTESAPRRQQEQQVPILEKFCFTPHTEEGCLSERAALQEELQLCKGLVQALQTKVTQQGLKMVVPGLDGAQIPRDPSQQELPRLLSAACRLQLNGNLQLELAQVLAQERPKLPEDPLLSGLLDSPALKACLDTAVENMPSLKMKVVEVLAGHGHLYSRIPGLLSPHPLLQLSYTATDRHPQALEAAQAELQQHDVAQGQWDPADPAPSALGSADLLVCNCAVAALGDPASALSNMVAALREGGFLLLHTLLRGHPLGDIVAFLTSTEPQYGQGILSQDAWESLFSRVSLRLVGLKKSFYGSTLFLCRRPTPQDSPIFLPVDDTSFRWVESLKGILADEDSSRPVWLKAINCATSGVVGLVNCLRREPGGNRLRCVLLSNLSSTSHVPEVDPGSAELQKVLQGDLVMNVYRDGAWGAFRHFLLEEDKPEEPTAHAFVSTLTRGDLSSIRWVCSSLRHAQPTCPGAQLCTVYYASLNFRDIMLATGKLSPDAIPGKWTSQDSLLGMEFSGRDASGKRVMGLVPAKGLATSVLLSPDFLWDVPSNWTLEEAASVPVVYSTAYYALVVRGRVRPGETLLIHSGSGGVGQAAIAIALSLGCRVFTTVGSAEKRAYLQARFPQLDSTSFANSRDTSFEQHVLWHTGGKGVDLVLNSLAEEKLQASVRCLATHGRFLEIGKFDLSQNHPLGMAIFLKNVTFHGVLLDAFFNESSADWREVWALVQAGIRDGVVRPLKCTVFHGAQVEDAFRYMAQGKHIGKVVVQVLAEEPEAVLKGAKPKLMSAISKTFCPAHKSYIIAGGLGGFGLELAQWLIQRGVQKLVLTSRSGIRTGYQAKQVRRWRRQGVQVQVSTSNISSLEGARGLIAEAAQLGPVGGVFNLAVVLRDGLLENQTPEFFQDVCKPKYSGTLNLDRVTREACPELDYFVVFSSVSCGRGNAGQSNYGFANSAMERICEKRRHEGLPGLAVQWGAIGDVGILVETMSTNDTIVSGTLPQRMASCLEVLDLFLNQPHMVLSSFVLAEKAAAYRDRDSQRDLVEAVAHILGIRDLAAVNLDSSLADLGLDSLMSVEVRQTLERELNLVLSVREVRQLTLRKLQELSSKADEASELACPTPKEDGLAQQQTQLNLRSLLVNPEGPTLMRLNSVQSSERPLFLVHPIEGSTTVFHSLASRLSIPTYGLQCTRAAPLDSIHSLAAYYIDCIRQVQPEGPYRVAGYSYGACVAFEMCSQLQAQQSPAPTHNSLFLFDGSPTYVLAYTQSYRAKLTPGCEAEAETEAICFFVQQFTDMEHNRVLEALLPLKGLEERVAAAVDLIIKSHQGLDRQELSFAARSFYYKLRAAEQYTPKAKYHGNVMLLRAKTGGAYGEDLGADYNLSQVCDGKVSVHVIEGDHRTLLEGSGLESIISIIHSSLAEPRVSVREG

Fatty acid synthase [26] = biological target: T4, Fatty acid synthase; assay: FAS thioesterase domain inhibitors, dose response, biochemical, kinetic fluorescence intensity (AID 624326); format: functional;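 note: rate of fluorescence rise from hydrolysis of a fluorogenic O-methyl fluorescein ester substrate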
[27] = biological target: DNA dC->dU-editing enzyme APOBEC-3G (Homo sapiens, UniProt Q9HC16); assay: APOBEC3G deaminase inhibitors, SAR follow-up, biochemical, fluorescence, single-stranded DNA substrate (AID 602136); format: functional; settings: read-out: IC50_Mean
Chain of DNA dC->dU-editing enzyme APOBEC-3G (Q9HC16 whole entry): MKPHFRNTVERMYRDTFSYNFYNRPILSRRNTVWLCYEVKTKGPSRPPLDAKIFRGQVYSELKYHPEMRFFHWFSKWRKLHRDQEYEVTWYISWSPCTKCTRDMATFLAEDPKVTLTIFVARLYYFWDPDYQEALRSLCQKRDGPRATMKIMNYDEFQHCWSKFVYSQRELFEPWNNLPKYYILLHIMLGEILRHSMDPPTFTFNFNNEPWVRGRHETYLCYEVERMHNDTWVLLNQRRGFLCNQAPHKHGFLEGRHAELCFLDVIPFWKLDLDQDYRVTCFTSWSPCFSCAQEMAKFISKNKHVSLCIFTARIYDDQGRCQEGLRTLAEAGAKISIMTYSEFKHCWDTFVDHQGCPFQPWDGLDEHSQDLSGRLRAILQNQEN

[28] = biological target: DNA dC->dU-editing enzyme APOBEC-3A (Homo sapiens, UniProt P31941); assay: SAR analysis of small molecule inhibitors of APOBEC3A DNA Deaminase via a fluorescence-based single-stranded DNA deaminase assay.; format: functional; settings: read-out: IC50_Mean
Chain of DNA dC->dU-editing enzyme APOBEC-3A (P31941 whole entry): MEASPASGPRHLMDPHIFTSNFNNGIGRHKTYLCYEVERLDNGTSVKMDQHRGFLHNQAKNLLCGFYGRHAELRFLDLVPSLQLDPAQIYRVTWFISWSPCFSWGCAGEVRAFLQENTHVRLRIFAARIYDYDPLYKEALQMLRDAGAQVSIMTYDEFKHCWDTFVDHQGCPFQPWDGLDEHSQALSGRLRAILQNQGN

[29] = HeLa cell cytotoxicity, dose response, cytotoxicity control for MgcRacGAP inhibitor project (AID 624300); format: functional
[30] = A Cell Based Secondary Assay to Explore Cytotoxicity in THP-1 Cells of Compounds that Modulate Mycobacterium tuberculosis in Media Containing Glycerol versus Media without Glycerol (2).; format: functional
[31] = Vero cell cytotoxicity, cytotoxicity control for M. tuberculosis inhibitor project, purified and synthesized samples, set 3 (AID 504684); format: functional
[32] = inhibitors of intracellular T. cruzi replication, confirmation, NIH3T3 host cells, beta-gal luminescence (AID 2044); format: functional, cell-based;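 note: intracellular parasites grown in NIH/3T3 mouse fibroblasts as host cells; luminescent beta-galactosidase reporter signal from transgenic T. cruzi replicating inside host cells; inhibitors lower the luminescence signal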
[33] = cytotoxicity toward NIH3T3 fibroblasts, dose response, counter-screen, cell-based, ATP luminescence, mouse fibroblasts (AID 2010); format: functional;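 note: cells exposed to compound for about 90 hours before reading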
[34] = biological target: Heat shock protein HSP 90-alpha (Homo sapiens, UniProt P07900); format: functional, organism-based
[35] = biological target: Aryl hydrocarbon receptor (Homo sapiens, UniProt P35869); settings: Potency;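 note: confirmatory quantitative high-throughput screen measuring activation of the AhR signaling pathway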

## O=C(COC(=O)CCN1C(=O)c2cccc([N+](=O)[O-])c2C1=O)NCc1ccccc1
Melanocortin receptor 4
  IC50: > 64.6 µM (inactive)
[1]
  IC50: > 64.6 µM (inactive)

## Cc1c(N=Nc2ccc(N(C)C)cc2)c(=O)n(-c2ccccc2)n1C
[2]
  EC50: 11.1 µM (active)
[3]
  EC50: 6.8 µM (active)
H4
  EC50: 34.5 µM (active)
[4]
  IC50: 73.1 µM (active)
[5]
  IC50: > 100 µM (inactive)
Prothrombin
  IC50: 42.8 µM (active)
[6]
  IC50: 56.9 µM (active)

## O=C(c1ccc2c3n(nc2c1)-c1ccccc1CO3)N1CCOCC1
BJ [7]
  EC50: 4.57 µM (inconclusive)
BJ [8]
  EC50: 3.76 µM (active)
[9]
  EC50: 1.55 µM (active)
[10]
  EC50: 10.8 µM (active)
BJ [11]
  EC50: 17 µM (active)
[12]
  EC50: 5.29 µM (active)
[13]
  AC50: 17.7 µM (active)
[14]
  AC50: 12.3 µM (active)
BJ [15]
  EC50: > 133 µM (inactive)
[16]
  AC50: 12.6 µM (active)

## O=C(COc1ccccc1)Nc1nnc(-c2ccccc2)o1
[17]
  AC50: 93.8 µM (active)

## Cn1cc(C(c2ccccn2)c2cn(C)c3ccccc23)c2ccccc21
[18]
  EC50: 55.6 µM (active)
[19]
  EC50: 0.157 µM (active)
[20]
  EC50: > 180 µM (inactive)
[21]
  EC50: 7.76 µM (active)
[22]
  EC50: > 150 µM (inactive)

## CN1CCC(OC(=O)c2cc3cc(Cl)cc(Cl)c3oc2=O)CC1
Interleukin-8 [23]
  IC50: 8.62 µM (active)
Interleukin-8 [24]
  IC50: 3.45 µM (active)

## COc1ccc(NC(=O)Nc2cccc3c2O[C@H](CN(C)C(=O)Nc2ccc(C(F)(F)F)cc2)[C@@H](C)CN([C@H](C)CO)C3=O)cc1
Melanocortin receptor 4
  IC50: 23.1 µM (inactive)
[1]
  IC50: > 64.6 µM (inactive)
Fatty acid synthase [25]
  IC50: 11.6 µM (active)
Fatty acid synthase [26]
  IC50: 7.98 µM (active)

## c1cnc2nc(SCc3cn4ccccc4n3)[nH]c2c1
[27]
  IC50: > 99 µM (inactive)
[28]
  IC50: > 99 µM (inactive)

## Cn1c(SCC(=O)c2ccccc2)nnc1-c1sc2ccccc2c1Cl
[27]
  IC50: > 99 µM (inactive)
[28]
  IC50: > 99 µM (inactive)

## CCc1ccc(O)c(/N=C/c2cccc(C)c2O)c1
[4]
  IC50: 29.4 µM (active)
[5]
  IC50: > 100 µM (inactive)
Prothrombin
  IC50: 11.8 µM (active)
[29]
  CC50: 100 µM (active)
[6]
  IC50: 45.5 µM (active)

## CCOC(=O)CNC(=O)[C@H](Cc1ccccc1)NC(=O)OCc1ccccc1 (Cbz-Phe-Gly-OEt)
[30]
  CC50: 58.5 µM (active)
[31]
  CC50: 32.1 µM (active)

## CCCC1COC(Cn2cncn2)(c2ccc(Cl)cc2Cl)O1 (configuration not stated) [PROPICONAZOLE]
[32]
  EC50: < 0.1 µM (active)
[33]
  EC50: > 60 µM (not active)
[34]
  AC50: < 0.195 µM (active)
[35]
  AC50: 70.8 µM (inconclusive)
cells
  EC50: 0.041 µM (active)
